Experimental data published in ChEMBL document CHEMBL1641432, “Design and synthesis of 3-pyridylacetamide derivatives as dipeptidyl peptidase IV (DPP-4) inhibitors targeting a bidentate interaction with Arg125” (Bioorg Med Chem, 2011).
Calls of active or inactive are those of the source. The rule behind the calls is not given here.

Assays:
[1] = biological target: Dipeptidyl peptidase 2 (Rattus norvegicus, UniProt Q9EPB1); assay: Inhibition of rat kidney DDP2 after 60 mins by spectrophotometry
[2] = biological target: Dipeptidyl peptidase 8 (Homo sapiens, UniProt Q6V1X1); assay: Inhibition of human DDP8 expressed in HEK293-F cells after 90 mins by spectrophotometry; type: cell-based
[3] = tested on: Canis familiaris; assay: Ex vivo inhibition of DDP4 in dog plasma at 0.5 mg/kg, po after 24 hrs; type: functional; conditions: Canis lupus familiaris
[4] = Mean residence time in rat at 1 mg/kg, po by LC/MS/MS analysis; type: ADME, organism-based; design: dose 1 mg/kg, route oral; conditions: in vivo
[5] = Mean residence time in dog at 1 mg/kg, po by LC/MS/MS analysis; type: ADME, organism-based, Canis lupus familiaris; design: dose 1 mg/kg, route oral; conditions: in vivo
[6] = Bioavailability in rat at 0.1 mg/kg, iv and 1 mg/kg, po by LC/MS/MS analysis; type: ADME, organism-based; conditions: in vivo
[7] = Bioavailability in dog at 0.1 mg/kg, iv and 1 mg/kg, po by LC/MS/MS analysis; type: ADME, organism-based, Canis lupus familiaris; conditions: in vivo
[8] = Metabolic stability in rat hepatic microsomes assessed per mg of protein at 1 uM; type: ADME, Liver
[9] = Metabolic stability in dog hepatic microsomes assessed per mg of protein at 1 uM; type: ADME, Canis lupus familiaris, Liver
[10] = Metabolic stability in human hepatic microsomes assessed per mg of protein at 1 uM; type: ADME, Liver
[11] = Solubility of the compound at pH 1.2 after 2 hrs; type: physicochemical; conditions: buffer
[12] = Solubility of the compound at pH 6.8 after 2 hrs; type: physicochemical; conditions: buffer
[13] = species: Canis familiaris; conditions: Canis lupus familiaris; Plasma; 0.5 mg/kg
Description: Ex vivo inhibition of DDP4 in dog plasma at 0.5 mg/kg, po up to 1 hr

Sequence of Dipeptidyl peptidase 8 (Q6V1X1 whole entry): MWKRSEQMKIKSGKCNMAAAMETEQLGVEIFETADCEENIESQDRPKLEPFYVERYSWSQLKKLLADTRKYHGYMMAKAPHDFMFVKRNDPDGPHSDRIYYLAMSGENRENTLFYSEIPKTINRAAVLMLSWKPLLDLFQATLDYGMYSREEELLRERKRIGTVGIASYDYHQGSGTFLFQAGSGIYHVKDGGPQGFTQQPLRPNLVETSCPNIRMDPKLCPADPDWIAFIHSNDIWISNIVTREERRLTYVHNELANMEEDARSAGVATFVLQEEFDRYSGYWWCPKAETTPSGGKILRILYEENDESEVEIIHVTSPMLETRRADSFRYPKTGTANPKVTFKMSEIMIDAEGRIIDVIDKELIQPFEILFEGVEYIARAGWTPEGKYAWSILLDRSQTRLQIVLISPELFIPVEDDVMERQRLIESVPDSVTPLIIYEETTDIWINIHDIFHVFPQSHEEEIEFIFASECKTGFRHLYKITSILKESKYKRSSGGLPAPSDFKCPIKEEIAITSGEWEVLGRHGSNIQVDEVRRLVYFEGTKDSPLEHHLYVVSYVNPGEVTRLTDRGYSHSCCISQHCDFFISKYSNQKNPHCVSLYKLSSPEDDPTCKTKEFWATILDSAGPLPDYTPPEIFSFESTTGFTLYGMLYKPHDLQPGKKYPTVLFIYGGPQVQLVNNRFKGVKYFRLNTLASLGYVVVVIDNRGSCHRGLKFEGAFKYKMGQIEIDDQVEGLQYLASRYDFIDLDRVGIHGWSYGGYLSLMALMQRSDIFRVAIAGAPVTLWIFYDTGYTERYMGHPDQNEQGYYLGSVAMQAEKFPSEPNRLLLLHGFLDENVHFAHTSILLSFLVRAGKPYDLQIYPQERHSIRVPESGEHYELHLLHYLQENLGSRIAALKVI
Sequence of Dipeptidyl peptidase 2 (Q9EPB1 whole entry): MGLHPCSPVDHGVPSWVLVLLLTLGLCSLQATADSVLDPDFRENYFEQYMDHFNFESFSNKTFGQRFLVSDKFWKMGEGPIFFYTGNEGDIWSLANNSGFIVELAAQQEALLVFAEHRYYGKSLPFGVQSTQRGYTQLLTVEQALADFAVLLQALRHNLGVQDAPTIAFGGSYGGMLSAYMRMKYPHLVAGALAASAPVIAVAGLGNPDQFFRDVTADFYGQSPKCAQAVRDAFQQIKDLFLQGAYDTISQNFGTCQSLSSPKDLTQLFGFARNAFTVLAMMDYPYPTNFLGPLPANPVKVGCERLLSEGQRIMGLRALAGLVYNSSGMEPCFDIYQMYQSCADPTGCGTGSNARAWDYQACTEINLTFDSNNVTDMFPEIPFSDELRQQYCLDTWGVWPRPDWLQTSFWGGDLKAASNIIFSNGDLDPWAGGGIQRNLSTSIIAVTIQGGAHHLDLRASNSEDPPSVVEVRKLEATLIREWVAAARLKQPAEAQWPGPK

- IC50 [1]: > 100 µM
- IC50 [2]: > 30 µM
- MRT [4]: 11.2 h
- MRT [5]: 4.35 h
- bioavailability [6]: 4.9%
- bioavailability [7]: 21.3%
- Stability [8]: < 1 µL/min
- Stability [9]: 2 µL/min
- Stability [10]: 4 µL/min
- solubility at 2 h [11]: 86 µg/mL
- solubility at 2 h [12]: 71 µg/mL
SMILES: Cc1ccc(-c2c(CC(=O)N3CCC[C@H]3C(N)=O)c(C)nc(CC(C)C)c2CN)cc1.Cl.Cl
- inhibition in vivo at 0.5 mg/kg [3]: 90%
- inhibition [13]: Active
